Laboratory results taken from US12661365B2, “Use of cannabidiol in the treatment of epilepsy” (priority 2020, dated 2026).

Key:
serum ALT = assay: Liver safety in the Phase 1 trial: serum liver chemistries (peak ALT versus ULN); type: in vivo, human
Description: Clinical laboratory measurements of liver injury and function, the Upper Limit of Normal (ULN) values used are: 68 international units [IU]/L for ALT, 45 IU/L for aspartate aminotransferase (AST), 129 IU/L for alkaline phosphatase (ALP), 29 μmol/L for total bilirubin (TBL), and 59 IU/L for gamma-glutamyl transferase (GGT).
Drug induced liver injury (DILI) is when serum ALT exceeds 5×ULN.
In the above-outlined Phase 1 trial, abnormal liver chemistries were found for the subjects. This was unexpected as subjects were healthy adults receiving therapeutic equivalent doses of CBD used to treat Dravet Syndrome and Lennox-Gastaut Syndrome (1500 mg/day).
Measurements were performed at screening, on trial Days −1, 12, 18, 23, 27, and at follow-up.

[1] = Phase 1 open-label drug-drug interaction trial: effect of repeated-dose CBD on the pharmacokinetics of a single dose of caffeine (plasma caffeine and paraxanthine, LC-MS/MS); type: in vivo, human; conditions: trough samples Days 23, 25 and 26, 750 mg CBD b.i.d., before coadministration on Day 26
Description: The duration of the trial was approximately 10 weeks, which includes a screening period (up to 4 weeks), a treatment period (4 weeks) and a safety follow-up period (2 weeks). After signing the informed consent form (ICF), participants entered the screening period (Day −28 to −1). […] The subjects were resident in the CRU for 2 periods. […] They were discharged on Day 3 after completion of the assessments. On Day 3, the first dose of CBD was taken in the morning in the CRU, and on this day, the escalating doses of CBD were dispensed to subjects to be taken at home from Day 4 to Day 12. After discharge on Day 3, the subjects returned to the CRU for ambulatory visits on Days 12, 18, and 23. At these ambulatory visits, the maintenance doses of CBD were dispensed to subjects to be taken at home from Day 13 to Day 25 (the evening dose of Day 25 was taken in the CRU). The subjects were admitted again to the CRU in the afternoon of Day 25. […] The subjects were discharged on Day 28 after completion of the assessments. […]
Plasma concentration of CBD determined on the following days: 23, 25, and 26. These were determined using liquid chromatography and tandem mass spectrometry. […]

[2] = healthy adults, CBD 1500 mg/day
[3] = healthy adults, CBD 1500 mg/day, 16 participants, ALT ULN 68 IU/L

C=C(C)[C@@H]1CCC(C)=C[C@H]1c1c(O)cc(CCCCC)cc1O [CBD, Cannabidiol]
rate of abnormal liver chemistries in healthy volunteers (serum ALT; CBD at the doses used in this study): 44%
exposure time at which all ALT elevations occurred (serum ALT; exposure to cannabidiol): 2-4 weeks
participants with peak ALT >5×ULN (international consensus criteria for DILI) (serum ALT; [2]): 5 (31%) participants
participants with peak serum ALT >2×ULN (serum ALT; [2]): 6 (38%) participants
participants with peak serum ALT ≥2 × ULN (serum ALT; [3]): 6 (38%)
participants with peak serum ALT ≥3 × ULN (serum ALT; [3]): 5 (31%)
participants with peak serum ALT ≥5 × ULN (serum ALT; [3]): 5 (31%)
participants with peak serum ALT ≥10 × ULN (serum ALT; [3]): 0 (0)
participants with peak serum ALT ≥20 × ULN (serum ALT; [3]): 0 (0)
participants with peak serum ALT >ULN (serum ALT; healthy adults, CBD up to 750 mg b.i.d. (1500 mg/day), 16 participants, ALT ULN 68 IU/L): 7 (44%)
trial days between which all ALT elevations occurred (serum ALT; trial day): 18 to 27 days
trough plasma levels of CBD [1]: reached steady state
